Patent US20060029649A1, “Stabilized antimicrobial agents” (priority 2004, published 2006)

Assay: Thermal stability of IPBC in lubricant mixtures, oven at 180° C., amount determined by HPLC
Format: physicochemical
Experimental: Except for example 2 wherein 100% IPBC was used, the antimicrobial agent was admixed with the lubricating agent at room temperature overnight in a roller mixer. Samples of the resulting mixtures were then placed in a conventional oven at 180° C. for the time specified below (5 minutes and 132 minutes). The amount of antimicrobial agent in the sample, initially and after heating, was determined by HPLC. All samples were contained in dark bottles and covered with aluminum foil during heating.
The samples were prepared and tested as described in Examples 1-5.

For `CCCCNC(=O)OCC#CI` [Example 2, 3-iodo-2-propynyl butyl carbamate], the “% Biocide/ 5 min.” value (after 5 minutes in oven at 180° C.) was 83%, the “% Biocide/ 132 min.” value (after 132 minutes in oven at 180° C.) was 0% and the “% Initial Biocide” value (before heating, by weight) was 100%.
